According to PMC5225203, “Multiparameter toxicity assessment of novel DOPO-derived organophosphorus flame retardants” (Archives of Toxicology, 2016):

Tests used:
[1] = tested on: human dorsal root ganglia-like cells (hESC-H9 derived peripheral neurons); assay: Peripheral neurotoxicity test (PeriTox-test); format: cell-based; settings: 48 h
Experimental: The human pluripotent stem cell (hPSC) line H9 (WA09 line) was obtained from WiCell (Madison, WI, USA). Import of cells and experiments was authorized under license #170-79-1-4-27 (Robert Koch Institute, Berlin, Germany). Cells were cultured according to standard protocols (Thomson et al. [1998]) and differentiated into dorsal root ganglia-like cells as described earlier (Chambers et al. [2012]), with slight modifications. Briefly, neural differentiation was promoted by adding neural differentiation medium and the combination of 6 small molecule pathway inhibitors [noggin (35 ng/mL; R&D Systems, Minneapolis, MN, USA), dorsomorphin (600 nM; Tocris Bioscience, Bristol, UK), […] (10 μM; Tocris Bioscience, Bristol, UK), CHIR99021 (1.5 µM; Axon Medchem, Vienna, VA, USA), SU5402 (1.5 µM; Tocris Bioscience, Bristol, UK), and DAPT (5 µM; Merck, Darmstadt, Germany)]. The cells were cryopreserved on day 8′ of differentiation (DoD 8′). For each experiment, cells were thawed in neural differentiation medium supplemented with CHIR99021 (1.5 µM), SU5402 (1.5 µM), and DAPT (5 µM). For the peripheral neurotoxicity test (PeriTox-test), test chemicals were serially diluted in differentiation medium containing BDNF, GDNF, and NGF (25 ng/mL; R&D Systems, Minneapolis, USA) and added to the cells on day 3 after thawing. After 48 h, neurite area and viability were assessed as described earlier (Krug et al. [2013]). Briefly, cells were loaded with 1 µM calcein-AM and 1 µg/mL H-33342 for 1 h at 37 °C. For image acquisition, an Array-Scan VTI HCS (high content screening) microscope (Cellomics, Waltham, MA USA) was used. In an automated procedure, all H-33342^+/calcein^+ cells were analyzed as viable cells. In channel 1, H-33342^+ nuclei were detected according to their size, area, shape, and intensity at excitation/emission wavelengths of 365 ± 50/535 ± 45. The nuclei borders were expanded radially by 3.2 µm to define a virtual cell soma area (VCSA). In channel 2 (at excitation/emission wavelengths of 474 ± 40/535 ± 45), all calcein^+ pixels were identified as viable cell structures (VCS). An algorithm was applied that used the VCSA as a filter in the calcein channel and subtracted it from the VCS. The remaining pixels (VCS-VCSA) in the calcein channel were defined as neurite area and were represented relative to the untreated control.

[2] = tested on: THP-1 monocytes differentiated into macrophages; assay: Acute cytotoxicity, MTS reduction, THP-1 macrophages; format: cell-based, human; settings: 48 h; for cell damage (viability, MTS reduction): concentrations as high as 400 µM; for concentration producing acute toxicity: MTS
Experimental: The human monocytic cell line THP-1 (ATCC: TIB-202) was grown as cell suspension in complete cell culture medium under standard growth conditions. Subculturing was performed by replacement of the medium when the cell density reached 8 × 10^5 cells/mL. Cell concentrations were not allowed to exceed 10^6 cells/mL. To differentiate THP-1 monocytes into macrophages, cells were grown in the presence of 200 nM phorbol-12-myristate-13-acetate (PMA; Sigma-Aldrich) for 72 h. For viability assessment, 8 × 10^4 cells per well were seeded in 200 µL complete cell culture medium containing 200 nM PMA in a 96-well plate and differentiated for 72 h under standard growth conditions. Thereafter, the medium was removed, the cells were washed twice with pre-warmed phosphate-buffered saline (PBS), and increasing concentrations of flame retardants or CdSO4 were added in 200 µL complete cell culture medium per well for 48 h. CellTiter96® AQueous One Solution (Promega, Switzerland) containing MTS (3-(4,5-dimethylthiazol-2-yl)-5-(3-carboxymethoxy-phenyl)-2-(4-sulfophenyl)-2H) as a water-soluble tetrazolium compound was used according to the manufacturer’s protocol. Absorption was detected at 490 nm.

[3] = Penetration into porcine skin by confocal Raman spectroscopy; format: in vitro ADME; settings: 1 h; for maximal penetration depth: porcine skin surface, 400 µM; for penetration/accumulation into porcine ear skin: topical 400 µM, confocal Raman
Experimental: The vertical distribution of topically applied DOPO derivatives and reference compounds was investigated on segments of porcine ears from freshly slaughtered animals. The skin was separated from the cartilage, depilated, and placed into Franz diffusion cells (1 cm^2). The acceptor solution was PBS buffer containing 2 % IGEPAL® CA-630 (Sigma-Aldrich). The test compounds were dispersed at a concentration of 400 µM (2 % in the case of caffeine) in PBS buffer containing 2 % IGEPAL® CA-630, after which 300 µL of this mixture (or a blank solution) was topically applied onto the porcine skin and allowed to penetrate for 60 min. Next, the skin was removed from the Franz cells, gently washed with PBS, and placed onto the optical window of an inverse confocal Raman microscope (Model 3510 SCA, River Diagnostics) equipped with a 60 × oil-immersion objective. The 785-nm excitation laser was used to acquire spectra in the fingerprint region (400–1800 cm^−1, 5 s integration time) starting from the surface of the skin and extending to a depth of 60 µm (2 µm step size). The acquisition was repeated for at least five positions. The averaged concentration profiles of the flame retardants and reference compounds were extracted by fitting (unrestricted classical least squares, third-order polynomial baseline) the Raman spectra with the reference spectra of keratin (as representative of all proteins), water, ceramide 3, cholesterol (as representatives of all lipids), natural moisturizing factor (NMF; fixed composition), lactate, urea, and solid test compounds using Skin Tools 2.0 software (River Diagnostics). The concentrations of the test substances are given as the molar fraction relative to keratin rather than correcting for the Raman signal attenuation using mathematical models (Franzen et al. [2013]). The response factors of the test compounds were determined against BSA solutions assuming similar Raman cross sections for keratin and BSA as described in the literature (Caspers et al. [2001]; Fleischli et al. [2013], [2015]). Because EDA-DOPO, ETA-DOPO, and EG-DOPO were only partially soluble in chloroform, their spectra were calibrated against DOPO with the assumption of the same Raman cross section for the biphenyl group. Because of the nature of the unrestricted fit, negative fitting coefficients can be obtained and the values must be compared to those of the blank sample. The fitting coefficients of the blank, untreated skin were also used to estimate the level of detection. The depth resolution of the confocal microscope was determined to be 8 µm at FWHM, leaving an uncertainty of approximately 4 µm in differentiating between truly permeated compounds and compounds sitting at the surface of the skin.

[4] = tested on: human neural crest cells; design: method as in Zimmer et al. [2014]; settings: concentrations as high as 100 µM; ref Zimmer et al. [2014]; cited from earlier work

For `O=P1(NCCNP2(=O)Oc3ccccc3-c3ccccc32)Oc2ccccc2-c2ccccc21` (centres unmarked) [EDA-DOPO, 6,6′-(ethane-1,2-diylbis(azanediyl))bis(6H-dibenzo[c,e][1,2]oxaphosphinine-6-oxide)], the “concentration moderately affecting neurite mass and reducing cell viability” value [1] was over 50 µM and the “cell damage (viability, MTS reduction)” value [2] was “no signs of cell damage”.
In the case of `O=P1(OCCOP2(=O)Oc3ccccc3-c3ccccc32)Oc2ccccc2-c2ccccc21` (centres unmarked) [EG-DOPO, 6,6′-(ethane-1,2-diylbis(oxy))bis(6H-dibenzo[c,e][1,2]oxaphosphinine-6-oxide)], the cell viability [1] is reported as “significantly affected”, the neurite integrity [1] is reported as “significantly affected” and the “concentration producing acute toxicity” value [2] is reported as over 20 µM.
For `Brc1ccc(Oc2cc(Br)c(Br)cc2Br)c(Br)c1` [PBDE-99, reference compound], the maximal penetration depth [3] is given as “less than 8 µm”, the “penetration/accumulation into porcine ear skin” value [3] is given as “moderate accumulation” and the “NCC migration and cell death” value [4] is given as “inhibited migration in the absence of cell death”. The cell viability [1] was “significantly affected”, the neurite integrity [1] was “significantly affected” and the “cell damage (viability, MTS reduction)” value [2] was “no signs of cell damage”.
In the case of `O=[PH]1Oc2ccccc2-c2ccccc21` (centres unmarked) [DOPO, 9,10-dihydro-9-oxa-10-phosphaphenanthrene-10-oxide], the “concentration moderately affecting neurite mass and reducing cell viability” value [1] is reported as over 50 µM and the “cell damage (viability, MTS reduction)” value [2] is reported as “no signs of cell damage”.
With `O=P1(NCCOP2(=O)Oc3ccccc3-c3ccccc32)Oc2ccccc2-c2ccccc21` (centres unmarked) [ETA-DOPO, 6-(2-((6-oxido-6H-dibenzo[c,e][1,2]oxaphosphinin-6-yl)amino)ethoxy)-6H-dibenzo[c,e][1,2]oxaphosphinine 6-oxide] the maximal penetration depth [3] was “less than 8 µm”, the “penetration/accumulation into porcine ear skin” value [3] was “significant accumulation” and the “concentration moderately affecting neurite mass and reducing cell viability” value [1] was over 50 µM. For the same compound, the “concentration producing acute toxicity” value [2] was over 20 µM.
